Test results from PubChem BioAssay (NCI).
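Cells were grown in 96-well plates and exposed to each compound for 48 hours at five concentrations; endpoints were interpolated linearly between bracketing concentrations, or set to the highest concentration if not reached. Abbreviation: GI50, concentration required for 50% inhibition of growth. At the TGI there is no net growth.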

Key:
Test in all cases: NCI-60 cell line screen, 48 h
[1] = test system: A498 renal
[2] = test system: BT-549 breast
[3] = test system: HCT-116 colon
[4] = test system: NCI-H522 lung
[5] = test system: OVCAR-8 ovarian
[6] = test system: SF-295 CNS
[7] = test system: SK-OV-3 ovarian
[8] = test system: SNB-19 CNS
[9] = test system: T-47D breast
[10] = test system: K-562 leukemia

| SMILES | GI50 [1] | TGI [1] | GI50 [2] | TGI [2] | GI50 [3] | TGI [3] | GI50 [4] | TGI [4] | GI50 [5] | TGI [5] | GI50 [6] | TGI [6] | GI50 [7] | TGI [7] | GI50 [8] | TGI [8] | GI50 [9] | TGI [9] | TGI [10] | GI50 [10] |
| --- | --- | --- | --- | --- | --- | --- | --- | --- | --- | --- | --- | --- | --- | --- | --- | --- | --- | --- | --- | --- |
| O=C(NC1CCCCC1)c1ccc(Nc2ncnc3c2cnn3-c2ccccc2)cc1 | 3.83 µM | 39.4 µM | 5.69 µM | 26.4 µM | 4.01 µM | > 100 µM | 6.4 µM | > 100 µM | 3.87 µM | 19.3 µM | 2.98 µM | 13.3 µM | 2.95 µM | 8.7 µM | 3.82 µM | 18.9 µM | 20.2 µM | > 100 µM | – | – |
| CC(C)(C)OC(=O)N1C2CCCC23O[C@@H]1c1cc2c(cc1C3=O)OCO2 (stereo not given in full) | – | – | – | – | – | > 100 µM | – | 31.3 µM | – | > 100 µM | – | 82.9 µM | – | 94 µM | – | > 100 µM | – | – | > 100 µM | – |
| NC(=S)N/N=C1\CCCC\C1=C/c1ccccc1 | – | > 100 µM | – | – | – | > 100 µM | – | 37.9 µM | – | > 100 µM | – | > 100 µM | – | > 100 µM | – | > 100 µM | – | – | > 100 µM | – |
| CCOc1ccc(N=Cc2c3ccccc3nc3ccccc23)cc1 | – | > 100 µM | – | – | – | – | – | > 100 µM | – | > 100 µM | – | > 100 µM | – | > 100 µM | – | > 100 µM | – | – | > 100 µM | – |
| CCCCCCCCCCCCCCCCCCC1=C(O)C(=O)C=C(OC)C1=O | – | > 100 µM | – | – | – | > 100 µM | – | 82.2 µM | – | > 100 µM | – | > 100 µM | – | > 100 µM | – | > 100 µM | – | – | – | – |
| NCCN.O=C([O-])[O-].O=C([O-])[O-].[Co+3].[K+] | > 100 µM | > 100 µM | – | – | > 100 µM | > 100 µM | > 100 µM | > 100 µM | > 100 µM | > 100 µM | > 100 µM | > 100 µM | > 100 µM | > 100 µM | > 100 µM | > 100 µM | – | – | > 100 µM | > 100 µM |
| CC(=O)[CH-]C(=O)c1ccccc1.CC(=O)[CH-]C(=O)c1ccccc1.O=S(=O)([O-])c1cc([O-])c2c([O-])cc(S(=O)(=O)[O-])cc2c1.[Na+].[Ti+4] | > 100 µM | > 100 µM | – | – | > 100 µM | > 100 µM | 70.7 µM | > 100 µM | > 100 µM | > 100 µM | 55.7 µM | > 100 µM | > 100 µM | > 100 µM | > 100 µM | > 100 µM | – | – | > 100 µM | > 100 µM |
| CSc1ccc2c(cc1=O)[C@@H](NC(=O)c1cc(O)c(O)c(O)c1)CCc1cc(O)c(O)c(O)c1-2 | – | > 100 µM | – | – | – | 29.4 µM | – | 44.4 µM | – | 54.2 µM | – | 43.6 µM | – | > 100 µM | – | > 100 µM | – | – | 18.9 µM | – |
| C[P+](C)(C)c1ccccc1 | – | – | – | – | – | > 100 µM | – | – | – | > 100 µM | – | > 100 µM | – | > 100 µM | – | > 100 µM | – | – | > 100 µM | – |
| O=C1CC2CCN(C(=O)c3ccccc3)CC2CCN1 (stereo not given) | – | > 100 µM | – | – | – | > 100 µM | – | – | – | > 100 µM | – | > 100 µM | – | > 100 µM | – | > 100 µM | – | – | > 100 µM | – |
